From ChEMBL document CHEMBL1136837, “Unified QSAR approach to antimicrobials. 4. Multi-target QSAR modeling and comparative multi-distance study of the giant components of antiviral drug-drug complex networks” (Bioorg Med Chem, 2009)

What was measured:
Hepatitis C virus = experiment: Antiviral activity against Hepatitis C virus; assay type: functional, organism-based, Hepacivirus hominis; details: Hepatitis C virus
[1] = system: Human immunodeficiency virus 1; experiment: Antiviral activity against HIV1; assay type: functional, organism-based

Compound	IC50 (Hepatitis C virus) [µM]	IC50 [1] [µM]
CC(=O)N[C@H](C(=O)N[C@H](C(=O)N1C[C@H](Oc2cccc(Br)c2)C[C@H]1C(=O)NC1(C(=O)O)CC1)C(C)C)C1CCCCC1	52	–
Cc1c(CO)c(=O)oc2c3c(ccc12)OC(C)(C)[C@H](OC(=O)C12CCC(C)(C(=O)O1)C2(C)C)[C@@H]3OC(=O)C12CCC(C)(C(=O)O1)C2(C)C (stereo partly specified)	–	24.9
CC(=O)OCc1cc2c(C)cc(=O)oc2c2c1OC(C)(C)[C@H](OC(=O)[C@@]13CC[C@](C)(C(=O)O1)C3(C)C)[C@@H]2OC(=O)[C@@]12CC[C@](C)(C(=O)O1)C2(C)C	–	14.1
Nc1nc(NC2CC2)c2ncn([C@H]3C=C[C@@H](CO)O3)c2n1	–	8.6
CC(=O)OCc1c(C)c2ccc3c(c2oc1=O)[C@@H](OC(=O)[C@@]12CC[C@](C)(C(=O)O1)C2(C)C)[C@@H](OC(=O)[C@@]12CC[C@](C)(C(=O)O1)C2(C)C)C(C)(C)O3	–	14.8
CC1(C)Oc2ccc3cc(CBr)c(=O)oc3c2[C@@H](OC(=O)[C@@]23CC[C@](C)(C(=O)O2)C3(C)C)[C@H]1OC(=O)[C@@]12CC[C@](C)(C(=O)O1)C2(C)C	–	11.1
Cc1cc(=O)oc2c3c(c(CN)cc12)OC(C)(C)[C@H](OC(=O)[C@@]12CC[C@](C)(C(=O)O1)C2(C)C)[C@@H]3OC(=O)[C@@]12CC[C@](C)(C(=O)O1)C2(C)C	–	15
CC1(C)Oc2ccc3cc(CN)c(=O)oc3c2[C@@H](OC(=O)[C@@]23CC[C@](C)(C(=O)O2)C3(C)C)[C@H]1OC(=O)[C@@]12CC[C@](C)(C(=O)O1)C2(C)C	–	15.4
Cc1cc(=O)oc2c3c(c(CO)cc12)OC(C)(C)[C@H](OC(=O)[C@@]12CC[C@](C)(C(=O)O1)C2(C)C)[C@@H]3OC(=O)[C@@]12CC[C@](C)(C(=O)O1)C2(C)C	–	15
CC(=O)OCc1cc2ccc3c(c2oc1=O)[C@@H](OC(=O)[C@@]12CC[C@](C)(C(=O)O1)C2(C)C)[C@@H](OC(=O)[C@@]12CC[C@](C)(C(=O)O1)C2(C)C)C(C)(C)O3	–	11.6
Cc1c(CBr)c(=O)oc2c3c(ccc12)OC(C)(C)[C@H](OC(=O)[C@@]12CC[C@](C)(C(=O)O1)C2(C)C)[C@@H]3OC(=O)[C@@]12CC[C@](C)(C(=O)O1)C2(C)C	–	20.9
CC1(C)Oc2ccc3cc(CO)c(=O)oc3c2[C@@H](OC(=O)[C@@]23CC[C@](C)(C(=O)O2)C3(C)C)[C@H]1OC(=O)[C@@]12CC[C@](C)(C(=O)O1)C2(C)C	–	23
Cc1cc(=O)oc2c3c(c(CBr)cc12)OC(C)(C)[C@H](OC(=O)[C@@]12CC[C@](C)(C(=O)O1)C2(C)C)[C@@H]3OC(=O)[C@@]12CC[C@](C)(C(=O)O1)C2(C)C	–	13.7
CCN(CC)Cc1cc2ccc3c(c2oc1=O)[C@@H](OC(=O)[C@@]12CC[C@](C)(C(=O)O1)C2(C)C)[C@@H](OC(=O)[C@@]12CC[C@](C)(C(=O)O1)C2(C)C)C(C)(C)O3	–	14.1
O=C(O)C(=C\c1ccc(O)c(O)c1)/C(=C\c1ccc(O)c(O)c1)C(=O)O	–	2.19
CC(=O)N[C@H](C(=O)N[C@H](C(=O)N1C[C@H](OCc2cccc3ccccc23)C[C@H]1C(=O)N[C@@]1(C(=O)O)C[C@@H]1C)C(C)C)C1CCCCC1	180	–
C#C[C@@]1(CO)C=C[C@H](n2cc(C)c(=O)[nH]c2=O)O1 [CENSAVUDINE]	–	0.25
CCCCOC(=O)c1cc2c([nH]c3ccccc32)c(-c2ccc3c(n2)C(=O)C(NC(=O)CCC)=CC3=O)n1 [LAV12]	–	5.8
Cc1cccc(C)c1OCC(=O)N[C@@H](Cc1ccccc1)[C@@H](O)C[C@H](Cc1ccccc1)NC(=O)[C@H](C(C)C)N1CCCNC1=O [LOPINAVIR]	–	0.034
Cc1ccnc2c1NC(=O)c1cccnc1N2C1CC1 [NEVIRAPINE]	–	0.06
COC(=O)C(C)NP(=O)(OC[C@@H]1C=C[C@H](n2cc(C)c(=O)[nH]c2=O)O1)Oc1ccc(Br)cc1 (stereo partly specified) [STAMPIDINE]	–	0.003

Next, values leading:

IC50 (Hepatitis C virus) [µM]	IC50 [1] [µM]	Compound
0.57	–	CCCC1(CC(=O)O)OCCc2c1[nH]c1c(C)ccc(C#N)c21 (stereo unspecified)
0.08	–	CCC[C@]1(CC(=O)O)OCCc2c1[nH]c1c(C)cc(F)c(C#N)c21
–	86	COc1ccc(C(OCCn2c([N+](=O)[O-])cnc2C)c2ccccc2)cc1 (stereo unspecified)
–	97	Cc1ncc([N+](=O)[O-])n1CCOC(c1ccccc1)c1ccc(Cl)c(Cl)c1 (stereo unspecified)
–	0.4	Fc1cccc(F)c1Cn1c(-c2c(F)cccc2F)nc2c(Cl)cccc21
–	0.37	NC(=O)c1cccc2c1nc(-c1c(F)cccc1F)n2Cc1c(F)cccc1F
90	–	CC(=O)N[C@H](C(=O)N[C@H](C(=O)N1C[C@H](OCc2cccc3ccccc23)C[C@H]1C(=O)N[C@@]1(C(=O)O)C[C@@H]1CCc1ccccc1)C(C)C)C1CCCCC1
4	–	CC(=O)N[C@H](C(=O)N[C@H](C(=O)N1C[C@H](Oc2cccc(-c3cccc([N+](=O)[O-])c3)c2)C[C@H]1C(=O)NC1(C(=O)O)CC1)C(C)C)C1CCCCC1
0.12	–	CCCC1(CC(=O)O)OCCc2c1[nH]c1c(C)cc(F)c(C#N)c21 (stereo unspecified)
0.33	–	CCC[C@]1(CC(=O)O)OCCc2c1[nH]c1c(C)ccc(C#N)c21
–	200	CC(=O)Nc1ccc(C(OCCn2c([N+](=O)[O-])cnc2C)c2ccccc2)cc1 (stereo unspecified)
–	35	Cc1ncc([N+](=O)[O-])n1CCCOC(c1ccccc1)c1ccccc1
–	14	Cc1ncc([N+](=O)[O-])n1CCOC(c1ccccc1)c1cccc(-n2cccc2)c1 (stereo unspecified)
–	45	Cc1ncc([N+](=O)[O-])n1CCOC(c1ccccc1)c1cc(Cl)cc(Cl)c1 (stereo unspecified)
81	–	CC(=O)N[C@H](C(=O)N[C@H](C(=O)N1C[C@H](OCc2cccc3ccccc23)C[C@H]1C(=O)N[C@@]1(C(=O)O)C[C@@H]1Cc1ccccc1)C(C)C)C1CCCCC1
–	5	Cc1ncc([N+](=O)[O-])n1CCOC(c1ccccc1)c1ccc([N+](=O)[O-])cc1 (stereo unspecified)
–	0.6	Cc1ncc([N+](=O)[O-])n1CCOC(c1ccccc1)c1ccccc1[N+](=O)[O-] (stereo unspecified)
0.12	–	CC[C@@H]1C[C@]1(NC(=O)[C@@H]1C[C@@H](Oc2cccc(-c3ccccc3)c2)CN1C(=O)[C@@H](NC(=O)[C@@H](NC(C)=O)C1CCCCC1)C(C)C)C(=O)O
–	2.71	COc1ccc(F)cc1-c1nc2c(N)cccc2n1Cc1c(F)cccc1F
–	0.06	Fc1cccc(F)c1Cn1c(-c2ccccc2)nc2ccccc21
–	1.7	Fc1cccc(F)c1Cn1c(-c2c(F)cccc2F)nc2ccccc21
–	0.1	O=Cc1cccc2c1nc(-c1c(F)cccc1F)n2Cc1c(F)cccc1F
640	–	CC(=O)N[C@H](C(=O)N[C@H](C(=O)N1C[C@H](OCc2cccc3ccccc23)C[C@H]1C(=O)N[C@@]1(C(=O)O)C[C@@H]1C(C)C)C(C)C)C1CCCCC1
–	0.19	O=C(/C=C/c1ccc(O)c(O)c1)NCC(OC(=O)/C=C/c1ccc(O)c(O)c1)C(=O)O (racemic)
–	4.3	O=C(NNC(=O)c1ccccc1S)c1ccccc1S [BIS(THIOSALICYL)HYDRAZIDE]
–	16.1	CC1(C)Oc2ccc3ccc(=O)oc3c2[C@@H](OC(=O)[C@@]23CC[C@](C)(C(=O)O2)C3(C)C)[C@H]1OC(=O)[C@@]12CC[C@](C)(C(=O)O1)C2(C)C [DCK]
–	5.4	CC(C)Nc1cccnc1N1CCN(C(=O)c2cc3cc(NS(C)(=O)=O)ccc3[nH]2)CC1 [DELAVIRDINE]
–	2	NC(=O)c1[nH]c2ccc(Cl)cc2c1S(=O)(=O)c1ccccc1 [L-737126]
–	0.0004	Cc1cc(/C=C/C#N)cc(C)c1Nc1ccnc(Nc2ccc(C#N)cc2)n1 [RILPIVIRINE]
–	0.00052	COC[C@@H](c1ccc(C(F)(F)F)cc1)N1CCN(C2(C)CCN(C(=O)c3c(C)ncnc3C)CC2)C[C@@H]1C [VICRIVIROC]
